According to ChEMBL document CHEMBL1795225, “Flavonoids as inhibitors of human CD38” (Bioorg Med Chem Lett, 2011):

These compounds were tested against T1, ADP-ribosyl cyclase/cyclic ADP-ribose hydrolase 1 (Homo sapiens, UniProt P28907) (assay: Inhibition of human CD38 using 20 uM 1, N6-etheno NAD+ as substrate by continuous fluorimetric method).
T1 sequence (P28907 whole entry): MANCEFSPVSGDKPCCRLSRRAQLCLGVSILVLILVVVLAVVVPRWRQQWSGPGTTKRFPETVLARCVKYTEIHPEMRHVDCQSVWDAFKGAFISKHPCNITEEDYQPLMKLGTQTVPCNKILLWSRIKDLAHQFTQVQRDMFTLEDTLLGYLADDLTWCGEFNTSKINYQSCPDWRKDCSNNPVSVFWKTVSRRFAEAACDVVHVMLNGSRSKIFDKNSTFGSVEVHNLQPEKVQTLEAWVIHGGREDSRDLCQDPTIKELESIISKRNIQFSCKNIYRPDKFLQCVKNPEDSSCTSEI

| Compound | IC50 [µM] |
| --- | --- |
| O=c1c(O)c(-c2ccc(O)c(O)c2)oc2cc(O)c(O)c(O)c12 [QUERCETAGETIN] | 48.6 |
| Oc1ccc(/C=C/c2cc(O)cc(O)c2)cc1 [RESVERATROL] | > 100 |
| COc1cc(-c2[o+]c3cc(O)cc(O)c3cc2O)cc(OC)c1O [MALVIDIN] | 17 |
| COc1cc(-c2[o+]c3cc(O)cc(O)c3cc2O)cc(O)c1O [PETUNIDIN] | 39.2 |
| Oc1cc(O)c2cc(O)c(-c3ccc(O)c(O)c3)[o+]c2c1 [CYANIDIN] | 21.8 |
| Oc1cc(O)cc(/C=C/c2ccc(O)c(O)c2)c1 [PICEATANNOL] | > 100 |
| O=c1c(O)c(-c2cc(O)c(O)c(O)c2)oc2cc(O)cc(O)c12 [MYRICETIN] | 24.8 |
| Oc1cc(O)c2ccc(-c3ccc(O)c(O)c3)[o+]c2c1 [LUTEOLINIDIN] | 6 |
| O=c1cc(-c2ccc(O)c(O)c2)oc2cc(O)cc(O)c12 [LUTEOLIN] | 8.2 |
| Oc1ccc(-c2[o+]c3cc(O)c(O)c(O)c3cc2O)cc1O | 14.2 |
| Oc1ccc2cc(O)c(-c3ccc(O)c(O)c3)[o+]c2c1 [FISETINIDIN] | 70.3 |
| O=c1c(O)c(-c2ccc(O)c(O)c2)oc2cc(O)cc(O)c12 [QUERCETIN] | 37.9 |
| Oc1cc(O)c2cc(O)c(-c3cc(O)c(O)c(O)c3)[o+]c2c1 [DELPHINIDIN] | 14.6 |
| O=c1c(O)c(-c2cc(O)c(O)c(O)c2)oc2cc(O)ccc12 [ROBINETIN] | 37.9 |
| Oc1ccc(-c2[o+]c3cc(O)cc(O)c3cc2O)cc1 [PELARGONIDIN] | 16.3 |
| Oc1cc(O)c2c(c1)OC(c1ccc(O)c(O)c1)C(O)C2 (racemic) [CATECHIN] | > 100 |
| OC[C@H]1O[C@@H](Oc2cc3c(O)cc(O)cc3[o+]c2-c2ccc(O)c(O)c2)[C@H](O)[C@@H](O)[C@@H]1O [KUROMANIN] | 6.3 |
| COc1ccc(-c2ccc3c(O)cc(O)cc3[o+]2)cc1O [DIOSMETINIDIN] | 32.1 |
